This note sets out measurements from patent US7034041B2 (priority 2000, dated 2006).

As usually defined, the Ki is the dissociation constant of the complex between target and ligand, obtained from inhibition or displacement.

Counter-ions that a name gives are not always drawn.

This experiment concerns the target (+)-MK801 binding site of the ionotropic NMDA receptor. Details: species or system rat.

For `Cc1ccccc1C1=CCN(C2(c3ccccc3)CCCCC2)CC1` [Example 7, 4-(2-methylphenyl)-1-(1-phenylcyclohexyl)-1,2,3,6-tetrahydropyridine hydrochloride], affinity was put at a Ki of 5.3 µM.
`Clc1ccccc1C1=CCN(C2(c3ccccc3)CCCCC2)CC1` [Example 11, 4-(2-chlorophenyl)-1-(1-phenylcyclohexyl)-1,2,3,6-tetrahydropyridine hydrochloride] displayed a Ki of 2.8 µM.
